Measured values reported in ChEMBL document CHEMBL5346922, “Discovery of phenylcarbamoyl xanthone derivatives as potent neuroprotective agents for treating ischemic stroke” (Eur J Med Chem, 2023).
Active and inactive are the calls of the source. The calls are words filed in the database; no cut-off is given here.

Legend:
PC-12 [1] = assay: Neuroprotective activity against H2O2-induced oxidative damage in rat PC12 cells assessed as increase in cell survival at 20 uM pretreated with H2O2 for 24 hrs followed by compound addition and measured after 24 hrs; type: functional; settings: read-out: Survival
PC-12 [2] = assay: Neuroprotective activity in rat PC12 cells assessed as protection against glutamate induced excitotoxicity at 20 uM pretreated with glutamate for 24 hrs followed by compound addition and measured after 24 hrs; type: functional
PC-12 [3] = assay: Neuroprotective activity against H2O2-induced oxidative damage in rat PC12 cells at 20 uM pretreated with H2O2 for 24 hrs followed by compound addition and measured after 24 hrs; type: functional
PC-12 [4] = assay: Neuroprotective activity against glutamate induced excitotoxicity in rat PC12 cells assessed as cell survival at 20 uM pretreated with glutamate for 24 hrs followed by compound addition and measured after 24 hrs; type: functional; settings: read-out: Survival
Rattus norvegicus [5] = assay: Neuroprotective activity against middle cerebral artery occlusion induced ischemia stroke Sprague-Dawley rat model assessed as decrease in brain water content at 60 mg/kg, ip measured after 24 hrs (reference value: 83.17 +/- 2.40%); type: functional; parameters: scale not given: the % may be the effect or the level left
Rattus norvegicus [6] = assay: Neuroprotective activity against middle cerebral artery occlusion induced ischemia stroke Sprague-Dawley rat model assessed as decrease in cerebral infarction area at 60 mg/kg, ip measured after 24 hrs by TTC staining based microscopic assay (reference value: 15.91 +/- 9.06 %); type: functional; parameters: scale not given: the % may be the effect or the level left
Rattus norvegicus [7] = assay: Neuroprotective activity against middle cerebral artery occlusion induced ischemia stroke Sprague-Dawley rat model assessed as Zea-longa score at 20 mg/kg, po measured after 24 hrs (reference value: 2.17+/- 0.37); type: functional
PC-12 [8] = assay: Neuroprotective activity against H2O2-induced oxidative damage in rat PC12 cells pretreated with H2O2 for 24 hrs followed by compound addition and measured after 24 hrs; type: functional, cell-based
PC-12 [9] = assay: Neuroprotective activity against glutamate induced excitotoxicity in rat PC12 cells pretreated with glutamate for 24 hrs followed by compound addition and measured after 24 hrs; type: functional, cell-based
PC-12 [10] = assay: Cytotoxicity against rat PC12 cells assessed as reduction in cell viability incubated for 24 hrs by MTT assay; type: functional, cell-based
PC-12 [11] = assay: Cytotoxicity against rat PC12 cells assessed as reduction in cell viability at 80 uM incubated for 24 hrs by MTT assay; type: functional

Which viability at 20 µM (PC-12 [1]) does the source give for `CCOc1cccc(N(C)C(=O)Oc2cc3oc4cc5c(c(O)c4c(=O)c3c(CC=C(C)C)c2OC)C=CC(C)(C)O5)c1` here?
The viability at 20 µM was 59.1%.

And the Activity (PC-12 [2])?
The Activity was 18.96%.

And the Activity (PC-12 [3])?
Its Activity is 8.38%.

And the viability at 20 µM (PC-12 [4])?
Its viability at 20 µM is 43.7%.

Which results are given for `CCc1cccc(N(C)C(=O)Oc2cc3oc4cc5c(c(O)c4c(=O)c3c(CC=C(C)C)c2OC)C=CC(C)(C)O5)c1`?
viability at 20 µM (PC-12 [1]): 60.7%; Activity (PC-12 [2]): 37.14%; Activity (PC-12 [3]): 11.9%; viability at 20 µM (PC-12 [4]): 56.3%

Which viability at 20 µM (PC-12 [1]) does the source give for `COc1c(OC(=O)N(C)c2ccccc2C)cc2oc3cc4c(c(OC)c3c(=O)c2c1CC=C(C)C)C=CC(C)(C)O4` here?
Its viability at 20 µM is 69.3%.

And the Activity (PC-12 [2])?
Its Activity is 31.44%.

What about the Activity (PC-12 [3]) of the same compound?
The Activity was 31.11%.

What about the viability at 20 µM (PC-12 [4]) of the same compound?
Its viability at 20 µM is 52.3%.

Which results are given for `CCCCC1OC(=O)c2ccccc21` (stereo not drawn) [RAC-3-N-BUTYLPHTHALIDE]?
Activity (Rattus norvegicus [5]): 82.2%; Activity (Rattus norvegicus [6]): 1.64%; Activity (Rattus norvegicus [7]): 1.33

For `COc1ccccc1N(C)C(=O)Oc1cc2oc3cc4c(c(O)c3c(=O)c2c(CC=C(C)C)c1OC)C=CC(C)(C)O4`, which viability at 20 µM (PC-12 [1]) is on record?
Its viability at 20 µM is 61.6%.

What about the Activity (PC-12 [2]) of the same compound?
The Activity was 25.79%.

And the Activity (PC-12 [3])?
The Activity was 13.94%.

And the viability at 20 µM (PC-12 [4])?
The viability at 20 µM was 48.4%.

How did the viability at 20 µM (PC-12 [1]) turn out when `COc1c(OC(=O)N(C)c2ccc(F)cc2)cc2oc3cc4c(c(O)c3c(=O)c2c1CC=C(C)C)C=CC(C)(C)O4` was run?
Its viability at 20 µM is 74.7%.

What about the Activity (PC-12 [2]) of the same compound?
Its Activity is 52.82%.

What about the Activity (PC-12 [3]) of the same compound?
Its Activity is 43.32%.

And the EC50 (PC-12 [8])?
The EC50 was 28.8 µM.

And the viability at 20 µM (PC-12 [4])?
The viability at 20 µM was 67.2%.

And the EC50 (PC-12 [9])?
Its EC50 is 21.3 µM.

Which Activity (PC-12 [10]) does the source give for `COc1c(OC(=O)N(C)c2ccccc2)cc2oc3c(CN4CCN(C)CC4)c4c(c(O)c3c(=O)c2c1CC=C(C)C)C=CC(C)(C)O4` here?
Its Activity is “Active”.

With `COc1c(OC(=O)N(C)c2ccc(C(C)(C)C)cc2)cc2oc3cc4c(c(O)c3c(=O)c2c1CC=C(C)C)C=CC(C)(C)O4` as the compound, how does the viability at 20 µM (PC-12 [1]) read?
Its viability at 20 µM is 63.6%.

What about the Activity (PC-12 [2]) of the same compound?
Its Activity is 12.14%.

And the Activity (PC-12 [3])?
Its Activity is 18.35%.

What about the viability at 20 µM (PC-12 [4]) of the same compound?
Its viability at 20 µM is 38.9%.

`COc1c(OC(=O)N(C)c2ccccc2)cc2oc3c(CN(C)C)c4c(c(O)c3c(=O)c2c1CC=C(C)C)C=CC(C)(C)O4` was tested. Which IC50 (PC-12 [10]; PC-12, 24 h) did it give?
Its IC50 is 5 µM.

What about the Activity (PC-12 [11]) of the same compound?
Its Activity is 90%.

What does the source list for `COc1c(OC(=O)N(C)c2ccccc2C)cc2oc3cc4c(c(O)c3c(=O)c2c1CC=C(C)C)C=CC(C)(C)O4`?
viability at 20 µM (PC-12 [1]): 66.8%; Activity (PC-12 [2]): 36.26%; Activity (PC-12 [3]): 25.55%; viability at 20 µM (PC-12 [4]): 55.7%

For `COc1c(OC(=O)N(CC2CC2)c2cccc(F)c2)cc2oc3cc4c(c(O)c3c(=O)c2c1CC=C(C)C)C=CC(C)(C)O4`, which viability at 20 µM (PC-12 [1]) is on record?
The viability at 20 µM was 74.4%.

And the Activity (PC-12 [2])?
The Activity was 55.65%.

And the Activity (PC-12 [3])?
Its Activity is 42.67%.

And the EC50 (PC-12 [8])?
The EC50 was 24.8 µM.

What about the viability at 20 µM (PC-12 [4]) of the same compound?
The viability at 20 µM was 69.2%.

What about the EC50 (PC-12 [9]) of the same compound?
Its EC50 is 17.3 µM.

How did the viability at 20 µM (PC-12 [1]) turn out when `COc1c(OC(=O)N(CC2CC2)c2cccc(C)c2)cc2oc3cc4c(c(O)c3c(=O)c2c1CC=C(C)C)C=CC(C)(C)O4` was run?
Its viability at 20 µM is 73%.

And the Activity (PC-12 [2])?
The Activity was 35.08%.

And the Activity (PC-12 [3])?
Its Activity is 39.49%.

What about the viability at 20 µM (PC-12 [4]) of the same compound?
Its viability at 20 µM is 54.9%.

Which viability at 20 µM (PC-12 [1]) does the source give for `CCc1ccccc1N(C)C(=O)Oc1cc2oc3cc4c(c(O)c3c(=O)c2c(CC=C(C)C)c1OC)C=CC(C)(C)O4` here?
The viability at 20 µM was 63.1%.

What about the Activity (PC-12 [2]) of the same compound?
The Activity was 35.36%.

And the Activity (PC-12 [3])?
The Activity was 17.35%.

What about the viability at 20 µM (PC-12 [4]) of the same compound?
Its viability at 20 µM is 55.1%.

For `COc1c(OC(=O)N(CC2CC2)c2ccccc2)cc2oc3cc4c(c(O)c3c(=O)c2c1CC=C(C)C)C=CC(C)(C)O4`, which viability at 20 µM (PC-12 [1]) is on record?
Its viability at 20 µM is 74.2%.

And the Activity (PC-12 [2])?
Its Activity is 53.91%.

And the Activity (PC-12 [3])?
Its Activity is 42.11%.

And the EC50 (PC-12 [8])?
The EC50 was 29.2 µM.

What about the viability at 20 µM (PC-12 [4]) of the same compound?
Its viability at 20 µM is 68%.

What about the EC50 (PC-12 [9]) of the same compound?
The EC50 was 20.9 µM.

Which viability at 20 µM (PC-12 [1]) does the source give for `COc1c(OC(=O)N(CC2CC2)c2cccc(Cl)c2)cc2oc3cc4c(c(O)c3c(=O)c2c1CC=C(C)C)C=CC(C)(C)O4` here?
The viability at 20 µM was 75.9%.

What about the Activity (PC-12 [2]) of the same compound?
The Activity was 46.68%.

What about the Activity (PC-12 [3]) of the same compound?
Its Activity is 45.94%.

And the EC50 (PC-12 [8])?
The EC50 was 26.2 µM.

And the viability at 20 µM (PC-12 [4])?
The viability at 20 µM was 62.9%.

`CCc1ccc(N(C)C(=O)Oc2cc3oc4cc5c(c(O)c4c(=O)c3c(CC=C(C)C)c2OC)C=CC(C)(C)O5)cc1` was tested. Which viability at 20 µM (PC-12 [1]) did it give?
Its viability at 20 µM is 65.5%.

And the Activity (PC-12 [2])?
Its Activity is 29.26%.

And the Activity (PC-12 [3])?
Its Activity is 22.79%.

And the viability at 20 µM (PC-12 [4])?
The viability at 20 µM was 50.8%.

How did the viability at 20 µM (PC-12 [1]) turn out when `COc1c(OC(=O)N(C)c2cccc(Br)c2)cc2oc3cc4c(c(O)c3c(=O)c2c1CC=C(C)C)C=CC(C)(C)O4` was run?
Its viability at 20 µM is 57.7%.

What about the Activity (PC-12 [2]) of the same compound?
The Activity was 3.74%.

What about the Activity (PC-12 [3]) of the same compound?
The Activity was 5.11%.

And the viability at 20 µM (PC-12 [4])?
Its viability at 20 µM is 33.1%.

What does the source list for `COc1c(OC(=O)N(C)c2ccc(C)cc2)cc2oc3cc4c(c(OC)c3c(=O)c2c1CC=C(C)C)C=CC(C)(C)O4`?
viability at 20 µM (PC-12 [1]): 70.2%; Activity (PC-12 [2]): 26.81%; Activity (PC-12 [3]): 33.3%; viability at 20 µM (PC-12 [4]): 49.1%

Which viability at 20 µM (PC-12 [1]) does the source give for `COc1c(OC(=O)N(C)c2ccc(C)cc2)cc2oc3cc4c(c(O)c3c(=O)c2c1CC=C(C)C)C=CC(C)(C)O4` here?
The viability at 20 µM was 63%.

And the Activity (PC-12 [2])?
The Activity was 29.08%.

And the Activity (PC-12 [3])?
Its Activity is 17.03%.

And the viability at 20 µM (PC-12 [4])?
The viability at 20 µM was 50.7%.
